Experimental data as given in US20100003191A1, “AURONE DERIVATIVE-CONTAINING COMPOSITION FOR DIAGNOSIS” (NAGASAKI UNIVERSITY, priority 2006, published 2010).

Test: In vivo radioactivity biodistribution experiment in normal mice (Example 1, Table 13)
Parameters: species or system ddY mice
Description: ^125I-labeled compounds were diluted with 10% ethanol-containing physiological saline. […] After their blood was collected, organs were removed, and the weights and radioactivities thereof were measured.
When any of the aurone derivatives was used, sufficient radioactivity to perform imaging of intracerebral amyloid migrated to the brain from the early stage of injection (1.7-4.6% ID/g). […] It was also shown that, in any of the aurone derivatives, in vivo radioactivity behavior is discharged mainly from the liver to the bile duct and the intestinal tract.

Row | Biodistribution of radioactivity, Blood (2 min after injection) | Biodistribution of radioactivity, Blood (10 min after injection) | Biodistribution of radioactivity, Blood (30 min after injection) | Biodistribution of radioactivity, Blood (60 min after injection) | Biodistribution of radioactivity, Brain (2 min after injection) | Biodistribution of radioactivity, Brain (10 min after injection) | Biodistribution of radioactivity, Brain (30 min after injection) | Biodistribution of radioactivity, Brain (60 min after injection) | Biodistribution of radioactivity, Heart (2 min after injection) | Biodistribution of radioactivity, Heart (10 min after injection) | Biodistribution of radioactivity, Heart (30 min after injection) | Biodistribution of radioactivity, Heart (60 min after injection) | Biodistribution of radioactivity, Intestine (2 min after injection) | Biodistribution of radioactivity, Intestine (10 min after injection) | Biodistribution of radioactivity, Intestine (30 min after injection) | Biodistribution of radioactivity, Intestine (60 min after injection) | Biodistribution of radioactivity, Kidney (2 min after injection) | Biodistribution of radioactivity, Kidney (10 min after injection) | Biodistribution of radioactivity, Kidney (30 min after injection) | Biodistribution of radioactivity, Kidney (60 min after injection) | SMILES | further results
1 | 2.69 (0.29) % injected dose per gram | 1.96 (0.34) % injected dose per gram | 1.48 (0.15) % injected dose per gram | 0.94 (0.25) % injected dose per gram | 1.89 (0.38) % injected dose per gram | 0.69 (0.21) % injected dose per gram | 0.26 (0.04) % injected dose per gram | 0.11 (0.03) % injected dose per gram | 3.80 (0.66) % injected dose per gram | 1.36 (0.66) % injected dose per gram | 0.55 (0.29) % injected dose per gram | 0.45 (0.11) % injected dose per gram | 1.65 (0.35) % injected dose per gram | 5.37 (1.10) % injected dose per gram | 9.50 (1.45) % injected dose per gram | 11.85 (2.70) % injected dose per gram | 7.84 (1.92) % injected dose per gram | 8.31 (3.19) % injected dose per gram | 10.37 (2.34) % injected dose per gram | 4.51 (1.43) % injected dose per gram | CN(C)c1ccc(/C=C2\Oc3ccc([125I])cc3C2=O)cc1 [[^125I]7] | Biodistribution of radioactivity, Liver (2 min after injection): 10.21 (1.87) % injected dose per gram; Biodistribution of radioactivity, Liver (10 min after injection): 7.86 (2.25) % injected dose per gram; Biodistribution of radioactivity, Liver (30 min after injection): 5.60 (0.59) % injected dose per gram; Biodistribution of radioactivity, Liver (60 min after injection): 4.33 (0.76) % injected dose per gram; Biodistribution of radioactivity, Lung (2 min after injection): 4.02 (0.83) % injected dose per gram; Biodistribution of radioactivity, Lung (10 min after injection): 2.44 (0.54) % injected dose per gram; Biodistribution of radioactivity, Lung (30 min after injection): 1.51 (0.41) % injected dose per gram; Biodistribution of radioactivity, Lung (60 min after injection): 1.17 (0.26) % injected dose per gram; Biodistribution of radioactivity, Pancreas (2 min after injection): 3.17 (0.68) % injected dose per gram; Biodistribution of radioactivity, Pancreas (10 min after injection): 1.04 (0.25) % injected dose per gram; Biodistribution of radioactivity, Pancreas (30 min after injection): 0.55 (0.21) % injected dose per gram; Biodistribution of radioactivity, Pancreas (60 min after injection): 0.30 (0.06) % injected dose per gram; Biodistribution of radioactivity, Spleen (2 min after injection): 1.76 (0.28) % injected dose per gram; Biodistribution of radioactivity, Spleen (10 min after injection): 0.81 (0.54) % injected dose per gram; Biodistribution of radioactivity, Spleen (30 min after injection): 0.51 (0.10) % injected dose per gram; Biodistribution of radioactivity, Spleen (60 min after injection): 0.37 (0.11) % injected dose per gram; Biodistribution of radioactivity, Stomach (2 min after injection): 1.21 (0.29) % injected dose per organ; Biodistribution of radioactivity, Stomach (10 min after injection): 1.35 (1.25) % injected dose per organ; Biodistribution of radioactivity, Stomach (30 min after injection): 1.87 (0.79) % injected dose per organ; Biodistribution of radioactivity, Stomach (60 min after injection): 1.51 (1.04) % injected dose per organ
2 | 4.16 (0.98) % injected dose per gram | 2.72 (1.01) % injected dose per gram | 2.84 (1.48) % injected dose per gram | 2.41 (0.70) % injected dose per gram | 3.17 (0.45) % injected dose per gram | 1.22 (0.09) % injected dose per gram | 0.32 (0.02) % injected dose per gram | 0.24 (0.05) % injected dose per gram | 5.07 (0.47) % injected dose per gram | 2.17 (0.34) % injected dose per gram | 0.98 (0.21) % injected dose per gram | 0.84 (0.37) % injected dose per gram | 3.06 (1.11) % injected dose per gram | 6.59 (3.43) % injected dose per gram | 10.34 (4.91) % injected dose per gram | 14.04 (2.87) % injected dose per gram | 9.91 (2.00) % injected dose per gram | 11.44 (2.76) % injected dose per gram | 6.00 (2.14) % injected dose per gram | 3.52 (0.77) % injected dose per gram | CNc1ccc(/C=C2\Oc3ccc([125I])cc3C2=O)cc1 [[^125I]12] | Biodistribution of radioactivity, Liver (2 min after injection): 11.26 (2.81) % injected dose per gram; Biodistribution of radioactivity, Liver (10 min after injection): 9.70 (2.78) % injected dose per gram; Biodistribution of radioactivity, Liver (30 min after injection): 6.11 (2.16) % injected dose per gram; Biodistribution of radioactivity, Liver (60 min after injection): 4.91 (0.72) % injected dose per gram; Biodistribution of radioactivity, Lung (2 min after injection): 6.86 (0.65) % injected dose per gram; Biodistribution of radioactivity, Lung (10 min after injection): 4.44 (0.39) % injected dose per gram; Biodistribution of radioactivity, Lung (30 min after injection): 2.41 (0.66) % injected dose per gram; Biodistribution of radioactivity, Lung (60 min after injection): 2.94 (0.62) % injected dose per gram; Biodistribution of radioactivity, Pancreas (2 min after injection): 4.83 (0.60) % injected dose per gram; Biodistribution of radioactivity, Pancreas (10 min after injection): 1.81 (0.15) % injected dose per gram; Biodistribution of radioactivity, Pancreas (30 min after injection): 0.83 (0.10) % injected dose per gram; Biodistribution of radioactivity, Pancreas (60 min after injection): 0.77 (0.28) % injected dose per gram; Biodistribution of radioactivity, Spleen (2 min after injection): 2.37 (0.41) % injected dose per gram; Biodistribution of radioactivity, Spleen (10 min after injection): 1.28 (0.19) % injected dose per gram; Biodistribution of radioactivity, Spleen (30 min after injection): 0.86 (0.14) % injected dose per gram; Biodistribution of radioactivity, Spleen (60 min after injection): 0.75 (0.17) % injected dose per gram; Biodistribution of radioactivity, Stomach (2 min after injection): 1.30 (0.43) % injected dose per organ; Biodistribution of radioactivity, Stomach (10 min after injection): 2.53 (0.97) % injected dose per organ; Biodistribution of radioactivity, Stomach (30 min after injection): 2.82 (1.88) % injected dose per organ; Biodistribution of radioactivity, Stomach (60 min after injection): 2.26 (0.88) % injected dose per organ
3 | 3.64 (0.78) % injected dose per gram | 4.38 (0.52) % injected dose per gram | 2.87 (0.82) % injected dose per gram | 2.35 (1.38) % injected dose per gram | 4.57 (0.27) % injected dose per gram | 1.51 (0.17) % injected dose per gram | 0.49 (0.06) % injected dose per gram | 0.26 (0.03) % injected dose per gram | 6.77 (0.74) % injected dose per gram | 2.69 (0.45) % injected dose per gram | 1.30 (0.41) % injected dose per gram | 0.98 (0.25) % injected dose per gram | 3.12 (0.85) % injected dose per gram | 5.06 (1.51) % injected dose per gram | 15.47 (5.48) % injected dose per gram | 18.30 (7.21) % injected dose per gram | 10.87 (2.95) % injected dose per gram | 13.12 (4.30) % injected dose per gram | 12.05 (5.44) % injected dose per gram | 4.95 (1.82) % injected dose per gram | Nc1ccc(/C=C2\Oc3ccc([125I])cc3C2=O)cc1 [[^125I]14] | Biodistribution of radioactivity, Liver (2 min after injection): 9.17 (3.45) % injected dose per gram; Biodistribution of radioactivity, Liver (10 min after injection): 8.48 (2.84) % injected dose per gram; Biodistribution of radioactivity, Liver (30 min after injection): 7.64 (2.19) % injected dose per gram; Biodistribution of radioactivity, Liver (60 min after injection): 5.85 (1.09) % injected dose per gram; Biodistribution of radioactivity, Lung (2 min after injection): 9.06 (0.47) % injected dose per gram; Biodistribution of radioactivity, Lung (10 min after injection): 7.01 (0.28) % injected dose per gram; Biodistribution of radioactivity, Lung (30 min after injection): 5.83 (0.55) % injected dose per gram; Biodistribution of radioactivity, Lung (60 min after injection): 5.23 (1.44) % injected dose per gram; Biodistribution of radioactivity, Pancreas (2 min after injection): 4.96 (0.44) % injected dose per gram; Biodistribution of radioactivity, Pancreas (10 min after injection): 2.01 (0.49) % injected dose per gram; Biodistribution of radioactivity, Pancreas (30 min after injection): 1.22 (0.21) % injected dose per gram; Biodistribution of radioactivity, Pancreas (60 min after injection): 0.87 (0.30) % injected dose per gram; Biodistribution of radioactivity, Spleen (2 min after injection): 2.29 (0.36) % injected dose per gram; Biodistribution of radioactivity, Spleen (10 min after injection): 1.64 (0.29) % injected dose per gram; Biodistribution of radioactivity, Spleen (30 min after injection): 0.84 (0.29) % injected dose per gram; Biodistribution of radioactivity, Spleen (60 min after injection): 0.92 (0.07) % injected dose per gram; Biodistribution of radioactivity, Stomach (2 min after injection): 1.59 (0.71) % injected dose per organ; Biodistribution of radioactivity, Stomach (10 min after injection): 2.94 (0.86) % injected dose per organ; Biodistribution of radioactivity, Stomach (30 min after injection): 4.01 (2.29) % injected dose per organ; Biodistribution of radioactivity, Stomach (60 min after injection): 3.49 (2.00) % injected dose per organ
